Test results taken from patent US6355799B1, “Substituted benzene compounds, process for their preparation, and herbicidal and defoliant compositions containing them” (ISK Americas Incorporated, priority 1997, dated 2002).

Experiments:
Assay type in all cases: in vivo
[1] = system: upland rice (Oryza sp., var. Tebonnet, RICE); assay: Post-emerge test, crop safety; settings: phytotoxicity rating 0-100 (0 no damage, 100 complete death), 14 days after application
Outline: (§1)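 Each test used a mechanized track sprayer delivering 187 l/ha of acetone solution at 15–1000 g ai/ha. Post-emerge foliage at 2–3 leaves was treated with added 0.25% v/v non-ionic surfactant and bottom-watered only. Injury was assessed on day 14, where 100 means total kill.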

[2] = system: field corn (Zea mays L., var. Dekalb 535, CORN); assay: Post-emerge test, crop safety; settings: phytotoxicity rating 0-100 (0 no damage, 100 complete death), 14 days after application
Outline: as §1

[3] = system: upland rice (Oryza sp., var. Tebonnet, RICE); assay: Pre-emerge test, crop safety; settings: pre-emerge, rated 14 days after application, 0 = no damage, 100 = complete death
Outline: (§2)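 Rating: 0–100 visual injury, 14 DAA. Application: acetone, 187 l/ha, 15–1000 g ai/ha, flat-fan track sprayer with nozzle 40–45 cm above soil or canopy. Post-emerge runs used 0.25% v/v surfactant on 2–3 leaf plants.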

[4] = system: field corn (Zea mays L., var. Dekalb 535, CORN); assay: Pre-emerge test, crop safety; settings: pre-emerge, rated 14 days after application, 0 = no damage, 100 = complete death
Outline: as §2

[5] = system: velvetleaf (Abutilon theophrasti, ABUTH); assay: Post-emerge test, greenhouse herbicide activity screening; settings: phytotoxicity rating 0-100 (0 no damage, 100 complete death), 14 days after application
Outline: (§3)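 Herbicidal damage is scored 0 (none) to 100 (complete plant death) two weeks after a simulated field spray. Rates span 15–1000 g ai/ha, delivered in acetone at 187 l/ha. For post-emergence treatments, plants have 2–3 leaves and the spray carries 0.25% v/v non-ionic surfactant.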

[6] = system: sicklepod (Cassia obtusifolia, CASOB); assay: as above; settings: phytotoxicity rating 0-100 (0 no damage, 100 complete death), 14 days after application
Outline: as §3

[7] = system: green foxtail (Setaria viridis, SETVI); assay: as above; settings: phytotoxicity rating 0-100 (0 no damage, 100 complete death), 14 days after application
Outline: as §3

[8] = system: johnsongrass (Sorghum halepense, SORHA); assay: as above; settings: phytotoxicity rating 0-100 (0 no damage, 100 complete death), 14 days after application
Outline: as §3

[9] = system: lambsquarters (Chenopodium album, CHEAL); assay: as above; settings: phytotoxicity rating 0-100 (0 no damage, 100 complete death), 14 days after application
Outline: as §3

[10] = system: large crabgrass (Digitaria sanguinalis, DIGSA); assay: as above; settings: phytotoxicity rating 0-100 (0 no damage, 100 complete death), 14 days after application
Outline: as §3

[11] = system: redroot pigweed (Amaranthus retroflexus, AMARE); assay: as above; settings: phytotoxicity rating 0-100 (0 no damage, 100 complete death), 14 days after application
Outline: as §3

[12] = system: ivyleaf morningglory (Ipomoea hederacea, IPOHE); assay: as above; settings: phytotoxicity rating 0-100 (0 no damage, 100 complete death), 14 days after application
Outline: as §3

[13] = system: barnyardgrass (Echinochloa crus-galli, ECHCG); assay: as above; settings: phytotoxicity rating 0-100 (0 no damage, 100 complete death), 14 days after application
Outline: as §3

[14] = system: common ragweed (Ambrosia artemisizfolia L., AMBEL); assay: Pre-emerge test, greenhouse herbicide activity screening; settings: pre-emerge, rated 14 days after application, 0 = no damage, 100 = complete death
Outline: (§4)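 Plants grown in 10 cm pots of sandy loam mix received acetone-dissolved compounds through a moving flat-fan nozzle. Doses ranged from 15 to 1000 g ai/ha. Pre-emerge pots were seeded one day earlier, post-emerge pots 8–21 days earlier. Fourteen days on, each pot was graded 0–100 for damage.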

[15] = system: velvetleaf (Abutilon theophrasti, ABUTH); assay: as above; settings: pre-emerge, rated 14 days after application, 0 = no damage, 100 = complete death
Outline: as §4

[16] = system: sicklepod (Cassia obtusifolia, CASOB); assay: as above; settings: pre-emerge, rated 14 days after application, 0 = no damage, 100 = complete death
Outline: as §4

[17] = system: green foxtail (Setaria viridis, SETVI); assay: as above; settings: pre-emerge, rated 14 days after application, 0 = no damage, 100 = complete death
Outline: as §4

[18] = system: johnsongrass (Sorghum halepense, SORHA); assay: as above; settings: pre-emerge, rated 14 days after application, 0 = no damage, 100 = complete death
Outline: as §4

[19] = system: lambsquarters (Chenopodium album, CHEAL); assay: as above; settings: pre-emerge, rated 14 days after application, 0 = no damage, 100 = complete death
Outline: as §4

[20] = system: large crabgrass (Digitaria sanguinalis, DIGSA); assay: as above; settings: pre-emerge, rated 14 days after application, 0 = no damage, 100 = complete death
Outline: as §4

[21] = system: ivyleaf morningglory (Ipomoea hederacea, IPOHE); assay: as above; settings: pre-emerge, rated 14 days after application, 0 = no damage, 100 = complete death
Outline: as §4

[22] = system: barnyardgrass (Echinochloa crus-galli, ECHCG); assay: as above; settings: pre-emerge, rated 14 days after application, 0 = no damage, 100 = complete death
Outline: as §4

[23] = system: redroot pigweed (Amaranthus retroflexus, AMARE); assay: as above; settings: pre-emerge, rated 14 days after application, 0 = no damage, 100 = complete death
Outline: as §4

With `CCOC(=O)C(C)Nc1cc(OC(F)F)cc(F)c1-n1c(=O)cc(C(F)(F)F)n(C)c1=O` (stereo not shown) [Compound 1-53] as the compound, how does the “Post-emerge Herbicidal Activity RICE (crop damage)” value ([1]; 63 g ai/ha) read?
The value was 10.

What about the “Post-emerge Herbicidal Activity RICE (crop damage)” value ([1]; 250 g ai/ha) of the same compound?
The value was 60.

And the “Post-emerge Herbicidal Activity CORN (crop damage)” value ([2]; 63 g ai/ha)?
Its value is 0.

What about the “Post-emerge Herbicidal Activity CORN (crop damage)” value ([2]; 250 g ai/ha) of the same compound?
The value was 30.

What about the “Pre-emerge crop damage RICE (phytotoxicity rating, scale 0-100)” value ([3]; 63 g ai/ha) of the same compound?
Its value is 50.

And the “Pre-emerge crop damage RICE (phytotoxicity rating, scale 0-100)” value ([3]; 250 g ai/ha)?
Its value is 90.

What about the “Pre-emerge crop damage CORN (phytotoxicity rating, scale 0-100)” value ([4]; 63 g ai/ha) of the same compound?
The value was 95.

What about the “Pre-emerge crop damage CORN (phytotoxicity rating, scale 0-100)” value ([4]; 250 g ai/ha) of the same compound?
The value was 100.

And the “Post-emerge Herbicidal Activity ABUTH” value ([5]; 63 g ai/ha)?
Its value is 100.

And the “Post-emerge Herbicidal Activity ABUTH” value ([5]; 250 g ai/ha)?
The value was 100.

And the “Post-emerge Herbicidal Activity CASOB” value ([6]; 63 g ai/ha)?
Its value is 60.

And the “Post-emerge Herbicidal Activity CASOB” value ([6]; 250 g ai/ha)?
The value was 95.

What about the “Post-emerge Herbicidal Activity SETVI” value ([7]; 63 g ai/ha) of the same compound?
Its value is 0.

And the “Post-emerge Herbicidal Activity SETVI” value ([7]; 250 g ai/ha)?
The value was 80.

What about the “Post-emerge Herbicidal Activity SORHA” value ([8]; 63 g ai/ha) of the same compound?
The value was 0.

What about the “Post-emerge Herbicidal Activity SORHA” value ([8]; 250 g ai/ha) of the same compound?
The value was 40.

And the “Post-emerge Herbicidal Activity CHEAL” value ([9]; 63 g ai/ha)?
Its value is 50.

And the “Post-emerge Herbicidal Activity CHEAL” value ([9]; 250 g ai/ha)?
Its value is 100.

What about the “Post-emerge Herbicidal Activity DIGSA” value ([10]; 63 g ai/ha) of the same compound?
Its value is 0.

And the “Post-emerge Herbicidal Activity DIGSA” value ([10]; 250 g ai/ha)?
The value was 50.

And the “Post-emerge Herbicidal Activity AMARE” value ([11]; 63 g ai/ha)?
Its value is 80.

And the “Post-emerge Herbicidal Activity AMARE” value ([11]; 250 g ai/ha)?
The value was 100.

What about the “Post-emerge Herbicidal Activity IPOHE” value ([12]; 63 g ai/ha) of the same compound?
Its value is 95.

And the “Post-emerge Herbicidal Activity IPOHE” value ([12]; 250 g ai/ha)?
The value was 100.

What about the “Post-emerge Herbicidal Activity ECHCG” value ([13]; 63 g ai/ha) of the same compound?
Its value is 0.

And the “Post-emerge Herbicidal Activity ECHCG” value ([13]; 250 g ai/ha)?
Its value is 50.

And the “Pre-emerge Herbicidal Activity AMBEL (phytotoxicity rating, scale 0-100)” value ([14]; 63 g ai/ha)?
The value was 50.

What about the “Pre-emerge Herbicidal Activity AMBEL (phytotoxicity rating, scale 0-100)” value ([14]; 250 g ai/ha) of the same compound?
Its value is 90.

And the “Pre-emerge Herbicidal Activity ABUTH (phytotoxicity rating, scale 0-100)” value ([15]; 63 g ai/ha)?
Its value is 100.

And the “Pre-emerge Herbicidal Activity ABUTH (phytotoxicity rating, scale 0-100)” value ([15]; 250 g ai/ha)?
Its value is 100.

And the “Pre-emerge Herbicidal Activity CASOB (phytotoxicity rating, scale 0-100)” value ([16]; 63 g ai/ha)?
The value was 0.

And the “Pre-emerge Herbicidal Activity CASOB (phytotoxicity rating, scale 0-100)” value ([16]; 250 g ai/ha)?
The value was 50.

What about the “Pre-emerge Herbicidal Activity SETVI (phytotoxicity rating, scale 0-100)” value ([17]; 63 g ai/ha) of the same compound?
The value was 50.

And the “Pre-emerge Herbicidal Activity SETVI (phytotoxicity rating, scale 0-100)” value ([17]; 250 g ai/ha)?
The value was 95.

And the “Pre-emerge Herbicidal Activity SORHA (phytotoxicity rating, scale 0-100)” value ([18]; 63 g ai/ha)?
The value was 50.

And the “Pre-emerge Herbicidal Activity SORHA (phytotoxicity rating, scale 0-100)” value ([18]; 250 g ai/ha)?
The value was 90.

What about the “Pre-emerge Herbicidal Activity CHEAL (phytotoxicity rating, scale 0-100)” value ([19]; 63 g ai/ha) of the same compound?
The value was 100.

What about the “Pre-emerge Herbicidal Activity CHEAL (phytotoxicity rating, scale 0-100)” value ([19]; 250 g ai/ha) of the same compound?
Its value is 100.

What about the “Pre-emerge Herbicidal Activity DIGSA (phytotoxicity rating, scale 0-100)” value ([20]; 63 g ai/ha) of the same compound?
Its value is 40.

What about the “Pre-emerge Herbicidal Activity DIGSA (phytotoxicity rating, scale 0-100)” value ([20]; 250 g ai/ha) of the same compound?
Its value is 90.

And the “Pre-emerge Herbicidal Activity IPOHE (phytotoxicity rating, scale 0-100)” value ([21]; 63 g ai/ha)?
The value was 50.

What about the “Pre-emerge Herbicidal Activity IPOHE (phytotoxicity rating, scale 0-100)” value ([21]; 250 g ai/ha) of the same compound?
Its value is 95.

What about the “Pre-emerge Herbicidal Activity ECHCG (phytotoxicity rating, scale 0-100)” value ([22]; 63 g ai/ha) of the same compound?
Its value is 0.

What about the “Pre-emerge Herbicidal Activity ECHCG (phytotoxicity rating, scale 0-100)” value ([22]; 250 g ai/ha) of the same compound?
The value was 80.

What about the “Pre-emerge Herbicidal Activity AMARE (phytotoxicity rating, scale 0-100)” value ([23]; 63 g ai/ha) of the same compound?
The value was 100.

And the “Pre-emerge Herbicidal Activity AMARE (phytotoxicity rating, scale 0-100)” value ([23]; 250 g ai/ha)?
The value was 100.
